Patent publication US20200188477A1, “A MEDICAMENT FOR THE TREATMENT OF DISEASES BY BIOFILM FORMING MICROORGANISMS” (priority 2017, published 2020)

Tested on: M. smegmatis over-expressing M. tuberculosis PpiB protein
Assay: Biofilm formation assay (crystal violet)
Format: cell-based, Mycobacterium smegmatis
Settings: Ms_PpiB (Tet+), 7 days, absorbance 550 nm

C[C@H]1O[C@H](O[C@H]2[C@H](O)[C@@H](O)[C@@H](O[C@H]3[C@H](O)[C@@H](O)C(O)O[C@@H]3CO)O[C@@H]2CO)[C@H](O)[C@@H](O)[C@@H]1N[C@H]1C=C(CO)[C@@H](O)[C@H](O)[C@H]1O (stereo partly shown) [acarbose]
concentration at which treatment significantly reduced biofilm formation: above 500 μg/ml
